Source: patent EP4740965A1, “PHARMACEUTICAL COMPOSITION OF COMPOUND FOR INHIBITING AND DEGRADING IRAK4, AND USE THEREOF IN MEDICINE” (Xizang Haisco Pharmaceutical Co., Ltd., priority 2023, dated 2025)

Legend:
[1] = Pharmacokinetic test in mice; assay type: in vivo, ICR mice; settings: mouse, po; plasma of mice, i.g. (10 mg/kg)
Description: Test example 2: Pharmacokinetic test in mice
Experimental animals: Male ICR mice, about 25 g, 6 mice/compound, purchased from Chengdu Ddossy Experimental Animals Co., Ltd.
Test design: On the day of the experiment, 6 ICR mice were randomly grouped according to their body weights. The animals were fasted with water available for 12 to 14 h one day before the administration, and were fed 4 h after the administration. Table 2.1 Administration information
Before and after the administration, 0.15 mL of blood was taken from the orbit of the animals under isoflurane anaesthesia and placed in an EDTAK2 centrifuge tube. The blood was centrifuged at 5000 rpm and 4°C for 10 min to collect plasma. The blood collection time points for the intravenous administration group and intragastric administration group were 0 min, 5 min, 15 min, 30 min, 1 h, 2 h, 4 h, 7 h and 24 h. Before analysis and detection, all samples were stored at - 60°C. The samples were analysed quantitatively by LC-MS/MS. Table 2.2 Pharmacokinetic parameters of compounds of the present invention in plasma of mice

IRAK4 = target: T1, IRAK4 (Homo sapiens, UniProt Q9NWZ3); assay: IRAK4 degradation activity in hPBMC cells (24 hours), automated western blot; assay type: cell-based; settings: IRAK4 protein degradation in hPBMC cells
T1 construct: endogenous in cells; host or cells: human peripheral blood mononuclear cells (hPBMC) from healthy volunteers
T1 sequence (Q9NWZ3 1-460): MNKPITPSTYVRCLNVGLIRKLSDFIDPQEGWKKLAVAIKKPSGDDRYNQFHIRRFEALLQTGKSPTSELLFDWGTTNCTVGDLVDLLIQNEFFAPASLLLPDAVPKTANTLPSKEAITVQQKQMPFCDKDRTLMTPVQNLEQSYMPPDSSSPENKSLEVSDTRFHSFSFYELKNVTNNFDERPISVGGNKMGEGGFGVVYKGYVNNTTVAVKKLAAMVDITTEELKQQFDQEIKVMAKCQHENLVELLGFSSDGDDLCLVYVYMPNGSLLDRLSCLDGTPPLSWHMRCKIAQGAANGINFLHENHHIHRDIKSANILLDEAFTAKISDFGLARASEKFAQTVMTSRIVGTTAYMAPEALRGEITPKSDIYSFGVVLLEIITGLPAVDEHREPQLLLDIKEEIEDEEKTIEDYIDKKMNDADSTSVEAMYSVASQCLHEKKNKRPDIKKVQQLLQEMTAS
Description: Test example 1: Study on IRAK4 degradation activity in hPBMC cells (24 hours)
hPBMC cells are human peripheral blood mononuclear cells. Peripheral venous blood was taken from healthy volunteers, and hPBMCs were isolated using Ficoll density gradient centrifugation (Ficoll-PaqueTM PLUS 1.077, GE, Cat. 17-1140-02). Culture conditions: RPMI-1640 + 10% FBS + 1% penicillin-streptomycin solution. The cells were cultured in an incubator at 37°C and 5% CO2. The cells were plated in a 24-well plate at 1 × 10^6 cells/well. After plating, compounds at different concentrations were added, and the cells were cultured in an incubator at 37°C and 5% CO2 for 24 hours. After the culture was completed, the cells were collected, and RIPA lysis buffer (beyotime, Cat. P0013B) was added. […] The protein sample of the supernatant was collected, the protein was quantified using a BCA kit (Beyotime, Cat. P0009), and then the protein was diluted to 1 mg/mL. The expression of IRAK4 (CST, Cat. 4363S) and the internal reference cofilin (CST, Cat. 5175S) were detected using a fully automated western blot quantitative analyser (Proteinsimple). The expression level of IRAK4 relative to the internal reference was calculated using compass software. […] An IRAK4 degradation-drug concentration curve was fit using Graphpad Prism 8 software, and the DC50 was calculated. […]

[2] = target: T2, hERG potassium ion channel (Homo sapiens, UniProt Q12809); assay: Effect on hERG potassium ion channel, manual whole cell patch-clamp in CHO cells; assay type: cell-based; settings: hamster, inhibitory effect on hERG potassium channel current
T2 construct: expressed in transfected cells
T2 sequence (Q12809 whole entry): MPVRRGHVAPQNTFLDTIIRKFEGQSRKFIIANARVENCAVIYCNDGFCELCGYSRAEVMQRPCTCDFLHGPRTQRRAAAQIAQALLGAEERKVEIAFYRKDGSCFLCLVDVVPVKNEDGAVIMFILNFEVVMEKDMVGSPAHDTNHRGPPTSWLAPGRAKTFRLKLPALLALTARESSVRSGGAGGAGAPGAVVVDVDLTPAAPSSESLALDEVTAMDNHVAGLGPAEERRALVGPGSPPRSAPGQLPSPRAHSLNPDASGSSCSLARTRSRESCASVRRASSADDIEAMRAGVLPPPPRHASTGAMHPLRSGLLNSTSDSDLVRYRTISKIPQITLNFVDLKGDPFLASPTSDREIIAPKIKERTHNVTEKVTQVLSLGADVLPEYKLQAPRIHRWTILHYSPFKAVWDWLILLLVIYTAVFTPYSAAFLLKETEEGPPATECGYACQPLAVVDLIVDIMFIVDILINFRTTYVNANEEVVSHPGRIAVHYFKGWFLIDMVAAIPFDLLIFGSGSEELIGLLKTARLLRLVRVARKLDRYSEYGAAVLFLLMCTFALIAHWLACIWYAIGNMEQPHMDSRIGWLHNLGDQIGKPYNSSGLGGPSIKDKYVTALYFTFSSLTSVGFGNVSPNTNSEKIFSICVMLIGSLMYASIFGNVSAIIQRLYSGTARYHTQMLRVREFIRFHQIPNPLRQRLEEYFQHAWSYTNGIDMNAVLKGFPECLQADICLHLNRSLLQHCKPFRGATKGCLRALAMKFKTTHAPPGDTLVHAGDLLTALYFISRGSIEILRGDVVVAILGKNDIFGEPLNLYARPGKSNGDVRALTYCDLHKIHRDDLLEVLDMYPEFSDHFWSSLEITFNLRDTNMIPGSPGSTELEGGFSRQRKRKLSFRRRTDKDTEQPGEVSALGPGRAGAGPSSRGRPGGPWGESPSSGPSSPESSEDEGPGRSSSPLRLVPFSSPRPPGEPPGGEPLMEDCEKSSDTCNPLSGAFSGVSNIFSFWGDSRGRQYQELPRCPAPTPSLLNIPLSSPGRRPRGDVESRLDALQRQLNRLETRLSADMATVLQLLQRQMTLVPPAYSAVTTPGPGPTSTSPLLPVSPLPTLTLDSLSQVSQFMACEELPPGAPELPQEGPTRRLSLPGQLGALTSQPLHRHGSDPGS
Description: Test example 3. Test of effect on hERG potassium ion channel
Experimental platform: electrophysiological manual patch-clamp system
Cell line: Chinese hamster ovary (CHO) cell line stably expressing hERG potassium ion channel
Experimental method: In CHO (Chinese Hamster Ovary) cells stably expressing hERG potassium channel, whole cell patch-clamp technique was used to record hERG potassium channel current at room temperature. The glass microelectrode was made of a glass electrode blank (BF150-86-10, Sutter) by a puller. The tip resistance after filling the liquid in the electrode was about 2-5 MΩ. The glass microelectrode can be connected to the patch-clamp amplifier by inserting the glass microelectrode into an amplifier probe. The clamping voltage and data recording were controlled and recorded by the pClamp 10 software through a computer. The sampling frequency was 10 kHz, and the filtering frequency was 2 kHz. […]
Compound IC50 was calculated using GraphPad Prism 5 software by fitting according to the following equation: Y = Bottom + (Top−Bottom)/(1+10^(∧)((LogIC50−X)*HillSlope)) [formula] where X represents the Log value of the tested concentration of the test sample, Y represents the inhibition percentage at the corresponding concentration, and Bottom and Top represent the minimum and maximum inhibition percentage, respectively. […]

SMILES | AUC(0-t) at 24 h [1] | DC50 (IRAK4) | IC50 [2]
Cn1c(=O)n(C2CCC(=O)NC2=O)c2cccc(C#CCOC3CCN(C[C@H]4CC[C@H](n5cc(NC(=O)c6cnn7ccc(N8C[C@H]9C[C@@H]8CO9)nc67)c(C(F)F)n5)CC4)CC3)c21 (stereo partly shown) [Control compound 1] | 2320 ± 146 ng·h/mL |  | 
Cn1nc(C2CCC(=O)NC2=O)c2cccc(C#CCO[C@@H]3CCN(C[C@H]4CC[C@H](n5cc(NC(=O)c6cnn7ccc(N8CCO[C@H](CO)C8)nc67)c(C(F)F)n5)CC4)C[C@@H]3F)c21 (single isomer, unassigned) [Chiral isomer 2 of compound 20] |  | < 20 nM | 
Cn1nc(C2CCC(=O)NC2=O)c2cccc(C#CCO[C@@H]3CCN(C[C@H]4CC[C@H](n5cc(NC(=O)c6cnn7ccc(N8CCO[C@H](CO)C8)nc67)c(C(F)F)n5)CC4)C[C@@H]3F)c21 (single isomer, unassigned) [Chiral isomer 1 of compound 20] |  | < 20 nM | > 40 µM
